Experimental data taken from patent US20110086898A1, “PYRAZOLOOXAZOLE COMPOUND” (Eisai R&D Management Co., Ltd., priority 2009, published 2011).

Experiments:
[1] = biological target: T1, human CRFR1 (Homo sapiens, UniProt P34998); test: CRFR1 binding test (SPA competition with 125I-CRF); conditions: membrane fraction of human CRFR1-expressing HEK293 cells, read-out: CRF1 receptor binding capacity IC50
T1 construct: The full-length CRFR1 gene was obtained by PCR by using human brain cDNA library; expressed in transfected cells
T1 sequence (P34998 24-415): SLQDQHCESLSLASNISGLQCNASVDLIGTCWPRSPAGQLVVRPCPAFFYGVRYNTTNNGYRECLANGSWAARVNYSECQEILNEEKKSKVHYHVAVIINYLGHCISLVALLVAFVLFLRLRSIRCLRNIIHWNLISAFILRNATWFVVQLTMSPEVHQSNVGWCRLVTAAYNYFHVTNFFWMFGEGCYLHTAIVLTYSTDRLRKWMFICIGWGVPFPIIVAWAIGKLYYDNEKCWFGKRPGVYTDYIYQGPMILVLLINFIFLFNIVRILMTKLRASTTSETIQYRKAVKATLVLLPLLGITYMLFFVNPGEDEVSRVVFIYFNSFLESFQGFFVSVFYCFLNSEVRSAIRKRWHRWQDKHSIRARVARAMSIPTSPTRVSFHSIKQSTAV
Method: (1) Preparation of CRFR1-Expressing Cells
The membrane fraction of human CRFR1 high-expressing cells was used as the material for a CRFR1 binding experiment. The CRFR1-expressing cells were prepared in the following manner. The full-length CRFR1 gene was obtained by PCR by using human brain cDNA library (QuickClone™, Clontech). The obtained DNA fragment was inserted into a cloning vector and the base sequence was confirmed cDNA having the proper base sequence was linked to an expression vector (pcDNA3.1™, Invitrogen). The CRFR1 expression vector was genetically introduced into HEK293 cell, and the resistant cells which proliferated in culture medium containing G418 (1 mg/ml) were cloned by the limiting dilution method. Out of the cloned cells, cells having high binding capacity between the membrane fraction per unit protein and sauvagine were selected according to the following binding experiment, and the selected cells were used for the experiments.
(2) Preparation of Membrane Fraction
The cloned cells obtained in (1) were collected and suspended in ice-cooled membrane buffer (50 mM Tris-HCl, 5 mM MgCl2, 2 mM EGTA, 1 mM DTT, protease inhibitor cocktail (COMPLETE™, Roche Diagnostics) pH 7.3), and then the cells were disrupted with a Polytron (KINEMATICA) while cooling on ice (level 5, 10 seconds, 2-5 times, ice-cooling) and then centrifuged (2,000 rpm, 5 minutes, 4° C.), followed by collecting the supernatant. Membrane buffer was added to the precipitate, and the mixture was subjected to Polytron treatment (same conditions as mentioned above) and centrifuged (conditions as mentioned above), and the obtained supernatant was collected and combined with the previous supernatant. This was centrifuged (13,000 rpm (18,000×g), 30 minutes, 4° C.) to prepare cell membranes. The precipitated cell membranes were suspended in membrane buffer and disrupted with a Polytron (level 5, 10 seconds, 3-5 times, ice-cooling) to prepare a dispersed suspension. The protein assay was carried out.
The following method (1) or (2) was earned out for use as the cell membrane action.
(1) The above dispersed suspension was diluted with membrane buffer containing 0.1% BSA to a protein concentration of 200 μg/ml, for use as the cell membrane fraction.
(2) The above dispersed suspension was freeze-preserved, and if necessary, thawed, re-dispersed and diluted for use as the cell membrane fraction.
A binding competition experiment with CRF was conducted by the SPA (GE Healthcare) method using a 96-well plate. Five jug of the cell membrane fraction protein, 1 mg of SPA beads and […] ^125I-CRF (Perkin Elmer) were allowed to stand at mom temperature for at least two hours in the presence of a test compound, and the radioactivity of each well after centrifugation (1,200 rpm (260×g), five minutes, room temperature) was measured with a TopCount (registered trademark; Perkin Elmer).
(4) Calculation of Binding Capacity
The radioactivity with addition of a 4,000-fold excess of non-radioactive sauvagine as the nonspecific binding was subtracted from each value, and the resulting value was expressed as a percentage (% of control), with 100% as the radioactivity without addition of the test compound (control).

[2] = test system: rat; conditions: Brain Research, 893:29-35 (2001); cited from earlier work
[3] = test system: limbic system seizure; conditions: Brain Research, 770:89-95; cited from earlier work
[4] = test system: Tg2576 transgenic mice; conditions: Journal of Neurochemistry, 108: 165-175 (2009); cited from earlier work
[5] = test system: male Balb/c mice; test: Light/dark box test in mice (anxiolytic effect); type: in vivo; conditions: for anxiolytic effect in the light/dark box test in mice: dose 30 mg/kg, oral administration; for Effective Dose: minimum dose significantly prolonging time spent in light box vs vehicle, oral, one hour prior to test, Balb/c mice
Method: Evaluation of Anxiolytic Effect in Light/Dark Box Test in Mice
The light/dark box test in mice was carried out according to a modified method of Belzung C., Misslin R., and Vogel E. et al. (Reference; Behavioural effects of the benzodiazepine receptor partial agonist RO16-6028 in mice, Psychopharmacology, 97, 388-391, 1989). The test apparatus used in this test was a light/dark box including a covered black acrylic box (dark box; 15×10×20 cm), a white acrylic box with top opened (light box; 15×20×20 cm) and a black acrylic tunnel (10×7×4.5 cm) that connects the dark box and the light box and enables a mouse to freely move back and forth between the dark box and light box. In this test apparatus, however, a transparent acrylic plate was used for the front side (20×20 cm) and back side (20×20 cm) of the light box to allow observation of the behavior. After setting illumination so that the light intensity of the floor surface of the light box became 150 Lux, 5-week-old male Balb/c mice (purchased from Nihon Charles River) were introduced into the dark box and the test was started. In the test; the tested compound was suspended in 5% dimethyl sulfoxide, 5% Cremopor EL and 90% physiological saline and orally administered to the test animals one hour prior to the start of the test.
(2) Calculation of Anxiolytic Effect:
The time spent in the light box was measured as an index of the anxiolytic effect, with “spend in the light box” defined as the state in which all limbs of the mice were on the floor of the light box. […] The statistical significance between the vehicle-treated group and the test compound-treated groups was analyzed by one-way layout analysis of variance followed by Dunnett multiple comparison when multiple doses were set for the same test, and by the Mann-Whitney U test when only one dose was set.

[6] = test system: stress-related reduction in food intake; conditions: Brain Research, 823: 221-225 (1999); cited from earlier work
[7] = test system: intracerebral amyloid-β; conditions: PNAS 104: 10673-10678 (2007); cited from earlier work
[8] = test system: ischemic and excitotoxic encephalopathy; conditions: Brain Research, 656: 405-408 (1994); cited from earlier work
[9] = test system: IBS patients; conditions: Gut 2004, 53:958-964; cited from earlier work
[10] = test system: ethanol withdrawal rats; conditions: Brain Research, 605:25-32 (1993); cited from earlier work

**Q.** For `CCOCc1cc(OC)c(-c2c(C)oc3c(N(CC4CCOCC4)CC4CC4)c(C)nn23)c(OC)c1` [Example 13, N-(cyclopropylmethyl)-3-[4-(ethoxymethyl)-2,6-dimethoxyphenyl]-2,6-dimethyl-N-(tetrahydro-2H-pyran-4-ylmethyl)pyrazolo[5,1-b][1,3]oxazole-7-amine], which IC50 [1] is on record?
**A.** 0.061 µM

**Q.** For `COCc1cc(OC)c(-c2c(C)oc3c(N(CC(C)C)CC4CCOCC4)c(C)nn23)c(OC)c1` [Example 11, 3-[2,6-dimethoxy-4-(methoxymethyl)phenyl]-N-isobutyl-2,6-dimethyl-N-(tetrahydro-2H-pyran-4-ylmethyl)pyrazolo[5,1-b][1,3]oxazole-7-amine], which IC50 [1] is on record?
**A.** 0.05 µM

**Q.** Which IC50 [1] does the source give for `CCc1nn2c(-c3c(OC)cc(COC)cc3OC)c(C)oc2c1N(CC(C)C)CC1CCOCC1` [Example 6, 3-[2,6-dimethoxy-4-(methoxymethyl)phenyl]-6-ethyl-N-isobutyl-2-methyl-N-(tetrahydro-2H-pyran-4-ylmethyl)pyrazolo[5,1-b][1,3]oxazole-7-amine] here?
**A.** 0.043 µM

**Q.** For `CCCN(CC1CC1)c1nc(C)nc(Nc2c(Cl)cc(Cl)cc2Cl)c1Cl` [NBI-27914], which “water avoidance stress-related rat catharsis” value [2] is on record?
**A.** inhibits

**Q.** What about the “limbic system seizure (convulsion and epilepsy induced by CRF administration)” value [3] of the same compound?
**A.** inhibits

**Q.** What about the “increased levels of Aβ and Aβ plaque deposition induced by stress” value [4] of the same compound?
**A.** inhibits

**Q.** With `CCOCc1cc(OC)c(-c2c(C)oc3c(N(CC4CC4)CC4CCOC4)c(CC)nn23)c(OC)c1` (stereo not drawn) [Example 9, N-(cyclopropylmethyl)-3-[4-(ethoxymethyl)-2,6-dimethoxyphenyl]-6-ethyl-2-methyl-N-(tetrahydrofuran-3-ylmethyl)pyrazolo[5,1-b][1,3]oxazole-7-amine] as the compound, how does the IC50 [1] read?
**A.** 0.044 µM

**Q.** Which results are given for `CCc1nn2c(-c3c(OC)cc(COC)cc3OC)c(C)oc2c1N(CC1CCOCC1)CC1CC1` [Example 5, N-(cyclopropylmethyl)-3-[2,6-dimethoxy-4-(methoxymethyl)phenyl]-6-ethyl-2-methyl-N-(tetrahydro-2H-pyran-4-ylmethyl)pyrazolo[5,1-b][1,3]oxazole-7-amine]?
**A.** IC50 [1]: 0.032 µM; anxiolytic effect in the light/dark box test in mice [5]: statistically significant effects; Effective Dose [5]: 30 mg/kg

**Q.** With `COCc1cc(OC)c(-c2c(C)oc3c(N(CC4CCOCC4)CC4CC4)c(C)nn23)c(OC)c1` [Example 10, N-(cyclopropylmethyl)-3-[2,6-dimethoxy-4-(methoxymethyl)phenyl]-2,6-dimethyl-N-(tetrahydro-2H-pyran-4-ylmethyl)pyrazolo[5,1-b][1,3]oxazole-7-amine] as the compound, how does the IC50 [1] read?
**A.** 0.071 µM

**Q.** What about the “anxiolytic effect in the light/dark box test in mice” value [5] of the same compound?
**A.** statistically significant effects

**Q.** What about the “Effective Dose” value [5] of the same compound?
**A.** 30 mg/kg

**Q.** With `COCc1cc(OC)c(-c2c(C)oc3c(N(CC(C)C)CC4CCOC4)c(C)nn23)c(OC)c1` (stereo not drawn) [Example 12, 3-[2,6-dimethoxy-4-(methoxymethyl)phenyl]-N-isobutyl-2,6-dimethyl-N-(tetrahydrofuran-3-ylmethyl)pyrazolo[5,1-b][1,3]oxazole-7-amine] as the compound, how does the IC50 [1] read?
**A.** 0.079 µM

**Q.** With `CCN(c1nc(C)cc(N2CC=C(c3cccc(F)c3)CC2)n1)c1ccc(C(C)C)cc1SC` [CRA1000] as the compound, how does the “stress-related reduction in food intake” value [6] read?
**A.** inhibit

**Q.** With `CCCCN(c1c(CC)nn2c(-c3c(OC)cc(COC)cc3OC)c(C)oc12)C1CCOCC1` [Example 15, N-butyl-3-[2,6-dimethoxy-4-(methoxymethyl)phenyl]-6-ethyl-2-methyl-N-(tetrahydro-2H-pyran-4-yl)pyrazolo[5,1-b][1,3]oxazole-7-amine] as the compound, how does the IC50 [1] read?
**A.** 0.098 µM

**Q.** For `CCc1nn2c(-c3c(OC)cc(COC)cc3OC)c(C)oc2c1N(CC1CC1)C1CCOCC1` [Example 16, N-(cyclopropylmethyl)-3-[2,6-dimethoxy-4-(methoxymethyl)phenyl]-6-ethyl-2-methyl-N-(tetrahydro-2H-pyran-4-yl)pyrazolo[5,1-b][1,3]oxazole-7-amine], which IC50 [1] is on record?
**A.** 0.102 µM

**Q.** Which IC50 [1] does the source give for `CCc1nn2c(-c3c(OC)cc(COC)cc3OC)coc2c1N(CC1CCOCC1)CC1CC1` [Example 3, N-(cyclopropylmethyl)-3-[2,6-dimethoxy-4-(methoxymethyl)phenyl]-6-ethyl-N-(tetrahydro-2H-pyran-4-ylmethyl)pyrazolo[5,1-b][1,3]oxazole-7-amine] here?
**A.** 0.1 µM

**Q.** Which IC50 [1] does the source give for `CCc1nn2c(-c3c(OC)cc(COC)cc3OC)c(C)oc2c1N(CC1CC1)CC1CCOC1` (stereo not drawn) [Example 8, N-(cyclopropylmethyl)-3-[2,6-dimethoxy-4-(methoxymethyl)phenyl]-6-ethyl-2-methyl-N-(tetrahydrofuran-3-ylmethyl)pyrazolo[5,1-b][1,3]oxazole-7-amine] here?
**A.** 0.077 µM

**Q.** For `CCc1nn2c(-c3c(OC)cc(COC)cc3OC)c(C)oc2c1N(CC1CC1)CC1CC1` [Example 7, N,N-bis(cyclopropylmethyl)-3-[2,6-dimethoxy-4-(methoxymethyl)phenyl]-6-ethyl-2-methylpyrazolo[5,1-b][1,3]oxazole-7-amine], which IC50 [1] is on record?
**A.** 0.021 µM

**Q.** For `CCc1nn2c(-c3c(OC)cc(COC)cc3OC)c(C)oc2c1N(CC1CC1)CC1COCOC1` [Example 14, N-(cyclopropylmethyl)-3-[2,6-dimethoxy-4-(methoxymethyl)phenyl]-N-(1,3-dioxan-5-ylmethyl)-6-ethyl-2-methylpyrazolo[5,1-b][1,3]oxazole-7-amine], which IC50 [1] is on record?
**A.** 0.121 µM

**Q.** With α-helical CRF (9-41) as the compound, how does the “stress-related increase in intracerebral amyloid-β” value [7] read?
**A.** suppresses

**Q.** And the “stress-related reduction in food intake” value [6]?
**A.** inhibit

**Q.** What about the “ischemic and excitotoxic encephalopathy” value [8] of the same compound?
**A.** inhibits

**Q.** And the “abdominal pain and anxiety” value [9]?
**A.** reduces

**Q.** And the colon intestinal hyperkinesis [9]?
**A.** inhibits

**Q.** What about the “anxiety behavior in ethanol withdrawal rats” value [10] of the same compound?
**A.** inhibits
